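Each compound was tested at five concentrations against cells in 96-well plates for 48 hours. TGI denotes the concentration required for complete inhibition of growth.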
Tested on: HCT-116 colon
Assay: DTP human tumour cell line panel, 48 h

COc1ccc(C2C(C(=O)O)=C(COC(C)=O)Oc3cc4c(cc32)OCO4)cc1 (stereo unspecified)
TGI: > 100 µM
